# Assay results as given in patent US20230190778A1, “COMPOSITION COMPRISING GLUCOSE OLIGOSACCHARIDE AND PROCESS FOR MAKING THE SAME AND USE THEREOF” (CARGILL, INCORPORATED, priority 2020, published 2023).
# Key:
# [1] = tested on: chicken macrophage-like cell line HD11; experiment: Nitric oxide (NO)-production assay (Griess); assay type: cell-based; details: HD11 cells
# Description: A nitric oxide production assay using chicken macrophage-like cell line HD11, as also described by Biggelaar et al., Vaccines 2020, 8(2), 332, was carried out to compare immune responses in terms of NO production of the glucose-oligosaccharide according to Example 1 and a prior art glucose-oligosaccharide fibre according to Example 2.
# To obtain a standard NO calibration curve, the Griess assay was used as described by Biggelaar et al.
# On day 1 HD11 cell were seeded, day 2 compounds were added at different concentrations i.e. at 10 ppm, 50 ppm and 100 ppm. […] Compounds were tested in triplicate per NO assay i.e. in total 3 series of NO assays were performed per compound per concentration.
# (NB: Negative output implies zero NO production. Negative values arise due to the calculation based on the standard NO calibration curve. Negative output can be seen as 0 NO production.)
# [2] = tested on: developing embryos (unhatched chicks); experiment: In ovo trial (hatchability / safety); assay type: in vivo, chicken; details: 1 mL injected in ovo at 17 days of incubation; at up to just 0.006 mg; FIG. 4
# Description: The trials were thus carried out to indicate safety of the compound according to the invention in animals In this case, a comparison was made with Example 3, a commercially available conjugated linoleic acid (CLA). It is known that CLA may modulate the immune system.
# 480 eggs we incubated under standard conditions. They were divided unto 8 groups of 10 eggs replicated 6 times. At 17 days of incubation eggs were injected with 1 mL of the respective solution of Example 1 and Example 3 at increasing concentrations. The intention was to deliver into the amniotic fluid to be orally consumed and digested by the developing embryos according to the method described by (Uni et al., 2005, Poult Sci 84:764-770). At day of hatch, hatched chicks as well as remaining non-hatched eggs were counted and % hatchability was calculated to indicate safety of injected materials by not causing mortality.
Substance,NO production (positive control) [1],hatchability [2]
Lipopolysaccharide [LPS],high NO production,
conjugated linoleic acid [Example 3],,Not all of the chicks hatched
